# Reference: patent publication US20080166396A1, “Boronate Medicaments Suitable for Short Duration Anticoagulation” (Trigen Holdings AG Clareville House, priority 2004, published 2008)
# Counter-ions that a name gives are not always drawn. Marks after values point to notes of the source that are not given here.
# Tests used:
# [1] = Excretion of administered dose as TRI 50c species; details: in vivo
# [2] = Solubility of TRI 50c monosodium salt at different pH values / reconstitution; type: physicochemical
# Description: A first class of formulation, therefore, comprises particulate formulations, i.e. powders and granules, for oral administration after reconstitution into a liquid preparation, and preferably into a drinkable preparation. It is generally preferred for the liquid preparation to be a solution rather than a suspension and certain particulate formulations are for dissolving to form a drinking solution. The formulation may be for reconstitution into a suspension or more normally a solution having a volume of from about 50 ml to about 150 ml. The disclosure also contemplates reconstituted volumes of less than about 50 ml or of more than about 150 ml, e.g. of up to about 250 ml and more often of up to about 200 ml.
# However, a solution with a pH of 9.5 will often be undesirably distasteful to drink. Accordingly, a pharmaceutically acceptable organic acid may be included in the particulate formulation in an amount selected to reduce the pH to a value at which the solution is more palatable but at which a solution of drinkable quantity (e.g. about 50 ml to about 150 ml) may be formed by reconstituting the particulate formulation. As the organic acid may be mentioned citric acid, tartaric acid or malic acid, for example. In many instances, citric acid is chosen.
# In a first series of experiments, this amount of the salt was dissolved in 50 ml water to form a solution of approximately pH 9.5. Dilute aqueous HCl was added to determine how much the pH could be reduced before precipitation occurred.
# In a second series of experiments, the same amount of the salt was dissolved in 150 ml water, and citric acid was added. […] Since acid solutions tend to be more palatable than alkaline ones, and citric acid is a common flavouring agent, this behaviour of the salt is highly beneficial. […] In general, it is contemplated that the boronate will be formulated to form a reconstituted solution having a pH of from 4 to 8, e.g. 4 to 7, optionally 5 to 6.
# [3] = Maximum aqueous solubility, salt shaken in water at 37° C., filtered, UV; type: physicochemical; details: 25 mg of dried salt shaken in water at 37° C.
# [4] = Comparative storage stability of sodium and calcium salts (moisture-permeable packaging); type: physicochemical
# Description: In both studies the active pharmaceutical ingredient was stored in gray sealed double bags within a PE/PP screw cap closed cylinder.
# human α-thrombin = biological target: T1, human α-thrombin (Homo sapiens, UniProt P00734); details: reported by Deadman et al, J. Med. Chem. 1995; cited from earlier work
# T1 construct: 50 μl of human α-thrombin (0.25 NIHμ/ml) was added
# Thrombin Time (TT) = test: Single oral doses of TGN 167 tablets in healthy male subjects; type: in vivo
# Description: TGN 167 tablets described above were administered via the oral route to 10 healthy male subjects as single doses (randomised double blind placebo controlled study). The group consisted of 10 healthy male volunteers, 9 of whom received active compound and one of whom received placebo. An amendment was introduced for the last panel, allowing 15 subjects (instead of 9) to receive a 600 mg dose. The interval between each dose of TGN 167 was one week minimum. The allocation of the placebo was such that each volunteer would only receive placebo once during the course of the study.
# Orally administered doses were: 75 mg (one tablet), 150 mg (two tablets), 300 mg (four tablets) and 600 mg (eight tablets).
# [5] = Stability: HPLC assay before and after drying over phosphorus pentoxide for 1 week; type: physicochemical; details: listed as TRI 50c Lys salt; for Amount: 5 mg in 5 mL
# Description: An assay of TRI 50c and its sodium and lysine salts before and after drying.
# For sample analysis, 5 mg of dried and non-dried material was weighed in a 5 mL volumetric flask and dissolved in 1 mL acetonitrile and filled up with demineralised water to 5 mL.
# The quantitative evaluation was performed using an HPLC-PDA method.
# [6] = dry (1 week over phosphorus pentoxide)
structure (smiles),measurement,setting,value
"COCCC[C@H](NC(=O)[C@@H]1CCCN1C(=O)[C@@H](Cc1ccccc1)NC(=O)OCc1ccccc1)B(O)O.[Na+] [TRI 50c monosodium salt, Cbz-(R)-Phe-(S)-Pro-(R)-Mpg-B(OH)2 monosodium salt]",administered dose excreted as TRI 50c species,[1],14%
same,concentration of boronate salt solution formed,[2]; at a pH of about 9.5,up to 600 mg/ml
same,pH of solution,[2]; salt equivalent to 600 mg TRI 50c dissolved in 10 ml water,9.88
same,pH of solution,[2]; salt equivalent to 600 mg TRI 50c dissolved in 50 ml water,~9.5
same,observation on dissolution,[3],left a white residue of undissolved material
same,"Tri50c (w/w %, LOD corrected)","[4]; T = 0, LOD = loss on drying",101.5 w/w %
same,"Tri50c (w/w %, LOD corrected)","[4]; T = 1, 25° C./60% r.h.",103.6 w/w %
same,"Tri50c (w/w %, LOD corrected)","[4]; T = 1, 40° C./75% r.h.",94.5 w/w %
same,"Tri50c (w/w %, LOD corrected)","[4]; T = 1, −20° C.",104.3 w/w %
same,"Tri50c (w/w %, LOD corrected)","[4]; T = 3, 25° C./60% r.h.",100.4 w/w %
same,"Tri50c (w/w %, LOD corrected)","[4]; T = 3, 40° C./75% r.h.",52.2 w/w %
same,"Tri50c (w/w %, LOD corrected)","[4]; T = 12, 25° C./60% r.h.",71.2 w/w %
COCCC[C@H](NC(=O)[C@@H]1CCCN1C(=O)[C@@H](Cc1ccccc1)NC(=O)OCc1ccccc1)B([O-])O.[K+] [Potassium Salt of TRI50C],observation on dissolution,[3],left a white residue of undissolved material
CNC[C@H](O)[C@@H](O)[C@H](O)[C@H](O)CO.COCCC[C@H](NC(=O)[C@@H]1CCCN1C(=O)[C@@H](Cc1ccccc1)NC(=O)OCc1ccccc1)B(O)O [N-METHYL-D-GLUCAMINE SALT OF TRI50C],observation on dissolution,[3],fully dissolve
COCCC[C@H](NC(=O)[C@@H]1CCCN1C(=O)[C@@H](Cc1ccccc1)NC(=O)OCc1ccccc1)B(O)O [Lithium Salt of TRI50C],observation on dissolution,[3],left a white residue of undissolved material
"COCCCC(NC(=O)C1CCCN1C(=O)C(Cc1ccccc1)NC(=O)OCc1ccccc1)B1OC(C)(C)C(C)(C)O1 [TRI 50b, Cbz-(R)-Phe-Pro-BoroMpg-OPinacol]",Ki,human α-thrombin,7 nM
COCCC[C@H](NC(=O)[C@@H]1CCCN1C(=O)[C@@H](Cc1ccccc1)NC(=O)OCc1ccccc1)B([O-])O.COCCC[C@H](NC(=O)[C@@H]1CCCN1C(=O)[C@@H](Cc1ccccc1)NC(=O)OCc1ccccc1)B([O-])O.[Ca+2] [TRI 50c calcium salt],time at which all TT had returned to baseline,Thrombin Time (TT); after oral administration,10 h
same,adverse clinical events (general or cardiovascular),"Thrombin Time (TT); oral, any dose, study period of 24 hours",no adverse clinical events
same,observation on dissolution,[3],left a white residue of undissolved material
same,"Tri50c (w/w %, LOD corrected)","[4]; T = 0, LOD = loss on drying",(99.7) w/w %
same,"Tri50c (w/w %, LOD corrected)","[4]; T = 1, 25° C./60% r.h.",(101.5) w/w %
same,"Tri50c (w/w %, LOD corrected)","[4]; T = 1, 40° C./75% r.h.",(100.6) w/w %
same,"Tri50c (w/w %, LOD corrected)","[4]; T = 1, −20° C.",(102.7) ^x w/w %
same,"Tri50c (w/w %, LOD corrected)","[4]; T = 3, 25° C./60% r.h.",(104.3) w/w %
same,"Tri50c (w/w %, LOD corrected)","[4]; T = 3, 40° C./75% r.h.",(82.0) w/w %
same,"Tri50c (w/w %, LOD corrected)","[4]; T = 3, −20° C.",(103.0) ^x w/w %
same,"Tri50c (w/w %, LOD corrected)","[4]; T = 12, 25° C./60% r.h.",(94.8 w/w) w/w %
COCCC[C@H](NC(=O)[C@@H]1CCCN1C(=O)[C@@H](Cc1ccccc1)NC(=O)OCc1ccccc1)B(O)O [Lysine Salt of TRI50C],Amount,[5]; [6],813.3 µg/mL
same,Purity,[5]; [6],90.17 % area
same,Amount,[5]; non-dried,809.8 µg/mL
same,Purity,[5]; non-dried,92.25 % area
